Values after ≈ are worked out from the molar mass of the structure shown. Square brackets hold non-standard residues; d marks the D form. Peptide text beside a SMILES is read from it. Dab = NCC[C@H](N)C(=O)O
Assays:
[1] = test system: P. variotii; test: MIC by CLSI M27/M38 methodology; format: cell-based; conditions: P. variotii isolate MYA-363; Table 8
[2] = test system: C. krusei; test: MIC by CLSI M27/M38 methodology; format: cell-based; conditions: C. krusei isolate ATCC 6258; Table 8

## N=C(N)NCCC[C@H](NC(=O)CNC(=O)[C@@H](N)Cc1ccccc1)C(=O)N[C@@H](CS)C(=O)N[C@@H](CCCNC(=N)N)C(=O)NCC(=O)N[C@@H](Cc1ccccc1)C(=O)N[C@@H](CCCNC(=N)N)C(=O)N[C@@H](CCCNC(=N)N)C(=O)N[C@@H](CCCNC(=N)N)C(=O)N[C@@H](CS)C(=O)N[C@@H](Cc1ccccc1)C(=O)N[C@@H](CS)C(=O)N[C@@H](Cc1c[nH]c2ccccc12)C(=O)N[C@@H](CCCNC(=N)N)C(=O)N[C@@H](Cc1c[nH]c2ccccc12)C(=O)N[C@@H](CS)C(N)=O [GMA4C_V4A] (H-FGRCRGFRRRCFCWRWC-NH2; N-terminus assumed)
[1]
  MIC, 100%: 8 mg/L (≈ 3.49 µM)
[2]
  MIC, 100%: 8 mg/L (≈ 3.49 µM)

## CC[C@H](C)[C@H](NC(=O)[C@H](CCCNC(=N)N)NC(=O)[C@@H](NC(=O)[C@H](CS)NC(=O)[C@H](Cc1ccccc1)NC(=O)[C@H](CS)NC(=O)[C@H](CCCNC(=N)N)NC(=O)[C@H](CCCNC(=N)N)NC(=O)[C@H](CCCNC(=N)N)NC(=O)[C@H](Cc1ccccc1)NC(=O)CNC(=O)[C@H](CCCNC(=N)N)NC(=O)[C@H](CS)NC(=O)[C@H](CCCNC(=N)N)NC(=O)CNC(=O)CN)[C@@H](C)O)C(=O)N[C@@H](CS)C(N)=O [GMA4C_V2A] (H-GGRCRGFRRRCFCTRIC-NH2; N-terminus assumed)
[1]
  MIC, 100%: 8 mg/L (≈ 3.91 µM)
[2]
  MIC, 100%: 16 mg/L (≈ 7.82 µM)

## NCC[C@H](NC(=O)CNC(=O)[C@@H](N)Cc1ccccc1)C(=O)N[C@@H](CS)C(=O)N[C@@H](CCN)C(=O)NCC(=O)N[C@@H](Cc1ccccc1)C(=O)N[C@@H](CCN)C(=O)N[C@@H](CCN)C(=O)N[C@@H](CCN)C(=O)N[C@@H](CS)C(=O)N[C@@H](Cc1ccccc1)C(=O)N[C@@H](CS)C(=O)N[C@@H](Cc1c[nH]c2ccccc12)C(=O)N[C@@H](CCN)C(=O)N[C@@H](Cc1c[nH]c2ccccc12)C(=O)N[C@@H](CS)C(N)=O [GMA4C_V5A, FG(Dab)C(Dab)GF(Dab)(Dab)(Dab)CFCW(Dab)WC-NH2] (H-FG[Dab]C[Dab]GF[Dab][Dab][Dab]CFCW[Dab]WC-NH2; N-terminus assumed)
[1]
  MIC, 100%: 4 mg/L (≈ 2.04 µM)
[2]
  MIC, 100%: 8 mg/L (≈ 4.08 µM)
